Experimental data from PubChem BioAssay AID330 (DTP/NCI, 2004).
Values joined by “and” are separate entries in the source; they are usually repeats but may differ in a detail not shown here. Identical values can stand only once. Inconclusive results and toxic doses are left out. Rule for the calls: active = survival T/C of 150% or more; inactive = T/C below 125% in these data. Peptide text beside a SMILES is read from it.

Test system: P388 leukemia ip, CD2F1 mice, survival T/C
Experiment: NCI In Vivo Anticancer Drug Screen. Data for tumor model P388 Leukemia (intraperitoneal) in CD2F1 (CDF1) mice
Settings: endpoint: median survival time, higher = longer survival
Method in brief: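 Mice carrying the transplanted tumor received test compound or vehicle. Survival was recorded in each group, and the value is the treated-group measurement divided by that of the vehicle-treated control group.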

[1] = dose: 50.0 mg/kg/injection, schedule: Q01DX005 (ip), vehicle: Klucel (hydroxypropylcellulose) (HPC)
[2] = dose: 100.0 mg/kg/injection, schedule: Q01DX005 (ip), vehicle: Klucel (hydroxypropylcellulose) (HPC)
[3] = dose: 200.0 mg/kg/injection, schedule: Q01DX005 (ip), vehicle: Klucel (hydroxypropylcellulose) (HPC)
[4] = dose: 50.0 mg/kg/injection, schedule: Q01DX005 (ip), vehicle: saline with Tween-80
[5] = dose: 100.0 mg/kg/injection, schedule: Q01DX005 (ip), vehicle: saline with Tween-80
[6] = dose: 200.0 mg/kg/injection, schedule: Q01DX005 (ip), vehicle: saline with Tween-80

Measured: T/C

CC1=C(C(N)=O)C(/C=C/c2ccccc2)NC(=S)N1 (stereo not drawn)
inactive: dose: 60.0 mg/kg/injection, schedule: Q01DX005 (ip), vehicle: Klucel (hydroxypropylcellulose) (HPC) 106 % of control | dose: 120.0 mg/kg/injection, schedule: Q01DX005 (ip), vehicle: Klucel (hydroxypropylcellulose) (HPC) 100 % of control | dose: 240.0 mg/kg/injection, schedule: Q01DX005 (ip), vehicle: Klucel (hydroxypropylcellulose) (HPC) 100 % of control

Cc1cn(C2CC(O)C(CO)O2)c(=O)[nH]c1=O (stereo not drawn)
inactive: dose: 16.0 mg/kg/injection, schedule: Q01DX009 (ip), vehicle: saline 100 % of control and 105 % of control | dose: 32.0 mg/kg/injection, schedule: Q01DX009 (ip), vehicle: saline with Tween-80 109 % of control | dose: 64.0 mg/kg/injection, schedule: Q01DX009 (ip), vehicle: saline with Tween-80 101 % of control | dose: 128.0 mg/kg/injection, schedule: Q01DX009 (ip), vehicle: saline with Tween-80 101 % of control | dose: 150.0 mg/kg/injection, schedule: Q02HX012 (ip), vehicle: saline 96 % of control | dose: 150.0 mg/kg/injection, schedule: Q04DX012 (ip), vehicle: saline 104 % of control | dose: 200.0 mg/kg/injection, schedule: Q02HX012 (ip), vehicle: saline 98 % of control | dose: 200.0 mg/kg/injection, schedule: Q04DX012 (ip), vehicle: saline 102 % of control | dose: 250.0 mg/kg/injection, schedule: Q01DX001 (ip), vehicle: saline 98 % of control | dose: 250.0 mg/kg/injection, schedule: Q01DX009 (ip), vehicle: saline 100 % of control | dose: 256.0 mg/kg/injection, schedule: Q01DX009 (ip), vehicle: saline with Tween-80 89 % of control | dose: 300.0 mg/kg/injection, schedule: Q02HX012 (ip), vehicle: saline 101 % of control | dose: 300.0 mg/kg/injection, schedule: Q04DX012 (ip), vehicle: saline 100 % of control | dose: 375.0 mg/kg/injection, schedule: Q01DX009 (ip), vehicle: saline 107 % of control and 95 % of control | dose: 400.0 mg/kg/injection, schedule: Q02HX012 (ip), vehicle: saline 109 % of control | dose: 400.0 mg/kg/injection, schedule: Q04DX012 (ip), vehicle: saline 105 % of control | dose: 500.0 mg/kg/injection, schedule: Q01DX001 (ip), vehicle: saline 98 % of control | dose: 512.0 mg/kg/injection, schedule: Q01DX009 (ip), vehicle: saline with Tween-80 108 % of control | dose: 512.0 mg/kg/injection, schedule: Q01DX009 (ip), vehicle: saline 99 % of control and 102 % of control | dose: 600.0 mg/kg/injection, schedule: Q02HX012 (ip), vehicle: saline 108 % of control | dose: 600.0 mg/kg/injection, schedule: Q04DX012 (ip), vehicle: saline 102 % of control | dose: 750.0 mg/kg/injection, schedule: Q01DX009 (ip), vehicle: saline 115 % of control and 97 % of control | dose: 1000.0 mg/kg/injection, schedule: Q01DX009 (ip), vehicle: saline 101 % of control and 103 % of control and 110 % of control | dose: 1500.0 mg/kg/injection, schedule: Q01DX009 (ip), vehicle: saline 108 % of control

COc1cccc2c1C(=O)c1c(O)c3c(c(O)c1C2=O)C[C@@](O)(/C(CO)=N/NC(=O)c1ccc(Cl)c(Cl)c1)C[C@@H]3OC1CC(NC(=S)Nc2ccc(F)cc2)C(O)C(C)O1 (stereo partly drawn)
inactive: dose: 0.1 mg/kg/injection, schedule: Q01DX009 (ip), vehicle: water 99 % of control | dose: 0.2 mg/kg/injection, schedule: Q01DX009 (ip), vehicle: water 113 % of control | dose: 0.4 mg/kg/injection, schedule: Q01DX009 (ip), vehicle: water 109 % of control | dose: 0.8 mg/kg/injection, schedule: Q01DX009 (ip), vehicle: water 111 % of control | dose: 12.5 mg/kg/injection, schedule: Q01DX009 (ip), vehicle: water 94 % of control | dose: 25.0 mg/kg/injection, schedule: Q01DX009 (ip), vehicle: water 91 % of control and 94 % of control | dose: 50.0 mg/kg/injection, schedule: Q01DX009 (ip), vehicle: water 91 % of control | dose: 100.0 mg/kg/injection, schedule: Q01DX009 (ip), vehicle: water 92 % of control

CCCCCCCCCCCC(=O)NCC(=O)NC1C(C)OC(Nc2ncnc3nc[nH]c23)C(O)C1O (stereo not drawn)
inactive: dose: 0.25 mg/kg/injection, schedule: Q01DX009 (ip), vehicle: other 113 % of control | dose: 0.5 mg/kg/injection, schedule: Q01DX009 (ip), vehicle: other 109 % of control

NC(Cc1ccccc1)C(=O)NC(CC(=O)O)C(=O)O (stereo not drawn) (H-Phe-Asp-OH; configuration not given here)
inactive: [1] 99 % of control | [2] 99 % of control | [3] 109 % of control

CC(=O)C(N=Nc1cc([N+](=O)[O-])cc(S(=O)(=O)O)c1O)C(=O)Nc1ccccc1.[Cr] (stereo not drawn)
inactive: dose: 50.0 mg/kg/injection, schedule: Q01DX009 (ip), vehicle: saline 107 % of control | dose: 100.0 mg/kg/injection, schedule: Q01DX009 (ip), vehicle: saline 99 % of control | dose: 200.0 mg/kg/injection, schedule: Q01DX009 (ip), vehicle: saline 97 % of control

CCCCC1(Cc2ccccc2)SC(=O)NC1=O (stereo not drawn)
inactive: [4] 98 % of control | [5] 100 % of control | [6] 91 % of control

Nc1nc(C2CCCC2)cc(=O)[nH]1
inactive: [1] 108 % of control | [2] 105 % of control | [3] 97 % of control

C=C=C(C)C(C(C)C)N1CCCC1 (stereo not drawn)
inactive: dose: 50.0 mg/kg/injection, schedule: Q01DX005 (ip), vehicle: saline 113 % of control | dose: 100.0 mg/kg/injection, schedule: Q01DX005 (ip), vehicle: saline 104 % of control

O=S1(=O)c2ccccc2N(c2ccccc2)c2nnc(-c3ccccc3)n21
inactive: dose: 100.0 mg/kg/injection, schedule: Q04DX002 (ip), vehicle: saline with Tween-80 93 % of control | dose: 200.0 mg/kg/injection, schedule: Q04DX002 (ip), vehicle: saline with Tween-80 92 % of control | dose: 400.0 mg/kg/injection, schedule: Q04DX002 (ip), vehicle: saline with Tween-80 92 % of control

COC(=O)N1C(=O)CO[C@@H]1C(C)(C)C
inactive: dose: 60.0 mg/kg/injection, schedule: Q01DX005 (ip), vehicle: saline with Tween-80 103 % of control | dose: 120.0 mg/kg/injection, schedule: Q01DX005 (ip), vehicle: saline with Tween-80 99 % of control | dose: 240.0 mg/kg/injection, schedule: Q01DX005 (ip), vehicle: saline with Tween-80 104 % of control

O=C(N/N=C/c1ccccc1[OH2+])c1ccncc1.O=C(N/N=C/c1ccccc1[OH2+])c1ccncc1.[Cl-].[Mn+2]
inactive: dose: 100.0 mg/kg/injection, schedule: Q04DX002 (ip), vehicle: Klucel (hydroxypropylcellulose) (HPC) 112 % of control | dose: 200.0 mg/kg/injection, schedule: Q04DX002 (ip), vehicle: Klucel (hydroxypropylcellulose) (HPC) 107 % of control | dose: 400.0 mg/kg/injection, schedule: Q04DX002 (ip), vehicle: Klucel (hydroxypropylcellulose) (HPC) 94 % of control

CC1(C)CC(=O)C(C(c2cccc([N+](=O)[O-])c2)C2C(=O)CC(C)(C)CC2=O)C(=O)C1
inactive: [1] 96 % of control | [2] 98 % of control | [3] 102 % of control

Nc1ccc(N)c2c1C(=O)c1ccccc1C2=O
inactive: [4] 110 % of control | dose: 50.0 mg/kg/injection, schedule: Q01DX009 (ip), vehicle: Klucel (hydroxypropylcellulose) (HPC) 105 % of control | [5] 105 % of control | dose: 100.0 mg/kg/injection, schedule: Q01DX009 (ip), vehicle: Klucel (hydroxypropylcellulose) (HPC) 103 % of control | [6] 105 % of control
